The results in this text go back to patent US11053207B2, “Indoleamine-2,3-dioxygenase inhibitor and preparation method therefor” (SHANGHAI INSTITUTE OF ORGANIC CHEMISTRY, CHINESE ACADEMY OF …, priority 2014, dated 2021).

Molecules are shown by their SMILES. pIC50: −log10 of the molar value.

The assay deals with IDO enzyme (Homo sapiens (Human), UniProt P14902). Nature of the assay: IDO enzyme inhibitory activity. The class given is biochemical. To be noted: OD321 nm, 60 min. How it is done:
Firstly, the IDO gene was amplified by PCR, the PCR amplification products were recovered, and then the pET28a plasmid (purchased from Shanghai Baoman Biotechnology Co., Ltd.) and the IDO gel recovery products were digested with EcoR I and Xho I restriction endonucleases (37° C., digestion for 2 h), electrophorized and recovered. The recovered products were ligated overnight by a T4 ligase and then the ligation products were added to DH5α competent cells, placed on ice for 30 min, heat-shocked at 42° C. for 90 s, cultured on a shaker, and seeded to a plate. Monoclonies were picked, identified by PCR and then by sequencing.
The constructed BL21 containing the pET28a-IDO plasmid was cultured at 37° C. to OD600=0.6-0.8, and a final concentration of 7 μM of chlorine methemoglobin and 1 mM of IPTG (isopropyl-β-D-thiogalactoside) were added for induction at 28° C. for 4 h; after the induction, the cell was centrifuged at 6000 rpm at 4° C., the collected cells were washed once with 20 mM PBS (pH6.5), and centrifuged and collected again.
The collected cells were resuspended with a lysis solution (20 mM PBS pH 6.5), ultrasonically lysed (40% of power, lysis for 20 min, placed on ice), the lysed bacteria were centrifuged at 13000 rpm for 15 min, precipitate was discarded and the supernatant was maintained; the nickel column was equilibrated with the lysis solution (20 mM PBS pH 6.5) for 3 column volumes, and then the lysis supernatant was loaded onto the nickel column; after loading, four column volumes of a rinsing solution (20 mM PBS pH 6.5, 20 mM imidazole) were used for washing, and finally protein was eluted with eluent (20 mM PBS pH 6.5, 250 mM imidazole); the eluted protein solution was dialyzed for 4 h, and the dialysis solution was 20 mM PBS, pH 6.5. After the dialysis, the protein sample was concentrated, packed, flash frozen by liquid nitrogen, and stored at −80° C. for further use.
Firstly, the compound was subject to a 3-fold gradient dilution. 1 μL of each concentration was added to a 96-well plate; 50 μL of the IDO enzyme solution (final concentration 600 ng/100μL) was added: 25 μL of substrate 1 mixture solution was added, 25 μL of substrate 2 mixture solution was added to initiate the reaction. Finally, the plate was read at OD321 nm, 60 min.

As usually defined, the pIC50 is −log10 of the IC50, conventionally taken in molar units. High values mean a low IC50, low ones a high IC50.

Chain of IDO enzyme (P14902 whole entry): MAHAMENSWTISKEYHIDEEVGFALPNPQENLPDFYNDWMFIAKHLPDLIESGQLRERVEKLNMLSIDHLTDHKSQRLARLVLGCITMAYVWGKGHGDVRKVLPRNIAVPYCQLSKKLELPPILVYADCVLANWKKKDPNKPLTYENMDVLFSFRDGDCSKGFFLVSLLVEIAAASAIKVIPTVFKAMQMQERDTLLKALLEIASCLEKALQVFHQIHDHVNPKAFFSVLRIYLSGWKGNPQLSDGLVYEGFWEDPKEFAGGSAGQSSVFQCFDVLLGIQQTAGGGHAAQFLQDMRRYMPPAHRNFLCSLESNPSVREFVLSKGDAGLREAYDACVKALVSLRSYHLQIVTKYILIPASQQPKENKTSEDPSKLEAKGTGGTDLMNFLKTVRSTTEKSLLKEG

Turning to `CS(=O)(CCNc1nonc1/C(=N/O)Nc1ccc(F)c(Br)c1)=NC#N` (racemic) [compound 6, (±)(Z)—N-(3-bromo-4-fluorophenyl)-N′-hydroxy-4-((2-(thio-methylsulfoxidecyanoimine)ethyl)amino)-1,2,5-oxadiazole-3-carboxamidine], the negative logarithm of the IC50 (pIC50) is 7.96.
